Results on 20 molecules are retold here after PMC8151276, “An Integrated Approach toward NanoBRET Tracers for Analysis of GPCR Ligand Engagement” (Molecules, 2021).

The target of the assay is T1, GNRHR (Homo sapiens, UniProt P30968).
T1 construct: purchased Promega (in-house HiBiT-GPCR construct library, NanoBRET)
T1 sequence (P30968 1-328): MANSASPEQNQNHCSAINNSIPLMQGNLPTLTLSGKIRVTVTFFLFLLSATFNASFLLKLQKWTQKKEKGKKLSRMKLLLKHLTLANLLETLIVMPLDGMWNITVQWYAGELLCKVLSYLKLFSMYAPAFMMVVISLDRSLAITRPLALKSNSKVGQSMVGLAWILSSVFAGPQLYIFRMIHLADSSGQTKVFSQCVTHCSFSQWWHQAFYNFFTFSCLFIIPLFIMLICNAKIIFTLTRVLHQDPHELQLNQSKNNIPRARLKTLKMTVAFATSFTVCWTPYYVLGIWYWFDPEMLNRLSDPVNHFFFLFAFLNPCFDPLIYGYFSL
Put plainly: NanoBRET screen HiBiT-GNRHR in HEK293. The class given is binding. On the procedure: Each tracer candidate was screened across the entire library of HiBiT-GPCR constructs using NanoBRET as the detection modality. As depicted in Figure 4A, the specificity of interactions was evaluated through decrease in BRET due to competitive displacement of a bound tracer by excess parental compound. Each tracer was analyzed for binding to each HiBiT-GPCR fusion in the absence and in the presence of competing parental compound. Briefly, HEK293 cells were transfected with HiBiT-GPCR constructs diluted into promoterless DNA to reduce expression and maximize translocation to the cell surface. Each tracer candidate was then screened at concentrations of 1 μM and 0.1 μM across cells expressing these fusions. Cells were treated for 1.5 h with tracer either alone or in the presence of 20 μM competing parental compound (i.e., control). BRET was measured upon addition of purified LgBiT and subsequent complementation with HiBiT genetically fused to a GPCR. The specificity of interactions was assessed through a decrease in BRET signal due to competitive displacement of the bound tracer. To further gauge the robustness of these interactions, the fold response over the control (i.e., BRETtracer/BRETcontrol) was calculated. We chose a 1.5-fold response, which translates to ≥7-fold signal over noise as the minimal threshold required to score an interaction as positive. […]. Below we highlight the screening results obtained for our exemplary fluorescent tracers based on Clozapine, Amitriptyline and AZD1283.
HiBiT-GPCR DNA constructs were diluted in 10 mM Tris pH 8 to a final concentration of 0.01 μg/μL, arrayed in 96-well plates and stored at −20 °C. For transfection, HEK293 cells were suspended in Opti-MEM (without phenol red) supplemented with 2% fetal bovine serum (Seradigm) and 100 units/mL penicillin–streptomycin (Gibco) at a final concentration of 220,000 cells/mL and dispensed into white 96-well plates at 90 μL/well. Subsequent transfections and screens were carried using an Agilent Bravo Automated Liquid Handling Platform. First, the 96-well HiBiT DNA arrays were diluted 25-fold in Opti-MEM (without serum or phenol red) to a final concentration of 0.0004 μg/μL and 20 μL of the diluted DNAs were transferred into new 96-well plates. Next, promoterless carrier DNA (1 μg/μL) was diluted 25-fold (0.04 μg/μL) and then dispensed into the diluted arrays at 20 μL/well. Following brief mixing, Viafect transfection reagent (Promega) diluted 16-fold into Opti-MEM was dispensed into the plates at 40 μL/well. After mixing by pipetting, plates were incubated for 10 min on the pipetting station deck. The DNA-transfection reagent complexes were then added to plates containing cells. To facilitate the screen, 10 μL of DNA-transfection reagent complexes were added in duplicates to the top 4 and bottom 4 rows, resulting in two identical 48-well arrays per plate. Plates with transfected cells were incubated for 18–20 h at 37 °C/5% CO2. A screen of each tracer across the entire library using two different concentrations requires duplicate plates of transfected cells. Depending on the number of tracers being screened, transfections can be scaled up using the same ratios. The next day, for each tracer, four 20× screening solutions in tracer dilution buffer (Promega) were prepared: two duplicates at final concentration of 20 μM and two duplicates at a final concentration of 2 μM. A competing unmodified compound was added to one of each duplicate at a final concentration of 400 μM. The four resulting solutions were diluted 4-fold in Opti-MEM without serum or phenol red to generate 5× solutions (5 µM and 0.5 µM tracer +/− 100 μM competing compound). To screen the library, a BioTek MultiFlo FX liquid dispenser was used to dispense 22.5 µL of tracer solution to the top 4 rows and 22.5 µL tracer + competing compound solution to the 4 bottom rows. Plates were briefly mixed on an orbital shaker and incubated for 1.5 h at room temperature. […]
A general note: In BRET a luciferase serves as donor, and the signal depends on an acceptor being close.

Turning to `O=C(CCc1ccc2n1[B-](F)(F)[N+]1=C(c3ccc[nH]3)C=CC1=C2)NCc1ccc(C(=O)NCCOCCC(=O)N[C@@H]2CC[C@@]3(O)[C@H]4Cc5ccc(O)c6c5[C@@]3(CCN4CC3CC3)[C@H]2O6)cc1` [Naltrexone-3-NB590], the “NanoBRET Fold Response” value runs as follows: (GNRHR, tracer 0.1μM) 0.90; (GNRHR, tracer 1μM) 0.99.

For the molecule `CN1CCN(C2=Nc3cc(Cl)ccc3N(CC(=O)NCCOCCOCCOCCOCCNC(=O)CCc3ccc4n3[B-](F)(F)[N+]3=C(c5ccc[nH]5)C=CC3=C4)c3ccccc32)CC1` [Clozapine-c-2-NB590], the “NanoBRET Fold Response” value was 1.02 (GNRHR, 0.1μM tracer) and 0.99 (GNRHR, 1μM tracer).

On to `O=C(CCOCCOCCOCCOCCNC(=O)CCc1ccc2n1[B-](F)(F)[N+]1=C(c3ccc[nH]3)C=CC1=C2)NCCCN1CCN(C2=Nc3cc(Cl)ccc3Nc3ccccc32)CC1` [Clozapine-a-2-NB590], for which the “NanoBRET Fold Response” value by setting is: (GNRHR, 0.1μM tracer) 1.02; (GNRHR, 1μM tracer) 1.24.

Take `CCOC(=O)c1cc(C#N)c(N2CCC(C(=O)NS(=O)(=O)Cc3ccccc3/C=C/C(=O)NCCNC(=O)CCc3ccc4n3[B-](F)(F)[N+]3=C(c5ccc[nH]5)C=CC3=C4)CC2)nc1C` [AZD1283-1-NB590]: the “NanoBRET Fold Response” value reads like this: (GNRHR, 0.1μM) 1.09; (GNRHR, 1μM) 1.08.

Turning to `COc1ccc2[nH]c(-c3ccc(CNC(=O)CCOCCOCCOCCOCCNC(=O)CCc4ccc5n4[B-](F)(F)[N+]4=C(c6ccc[nH]6)C=CC4=C5)cc3)c(CCNC(C)=O)c2n1` [AzomelatoninICO9-2-NB590], the “NanoBRET Fold Response” value is, setting by setting: (0.1μM tracer) 0.61; (1μM tracer) 0.98.

Turning to `CCCn1c(=O)c2[nH]c(-c3ccc(OCC(=O)NCCNC(=O)CCOCCNC(=O)c4ccc(CNC(=O)CCc5ccc6n5[B-](F)(F)[N+]5=C(c7ccc[nH]7)C=CC5=C6)cc4)cc3)nc2n(CCC)c1=O` [XAC-3-NB590], the “NanoBRET Fold Response” value by setting is: (GNRHR, tracer 0.1μM) 0.94; (GNRHR, tracer 1μM) 0.98.

`COc1ccccc1N1CCN(CCCCN2C(=O)c3ccc(CNC(=O)CCOCCNC(=O)c4ccc(CNC(=O)CCc5ccc6n5[B-](F)(F)[N+]5=C(c7ccc[nH]7)C=CC5=C6)cc4)cc3C2=O)CC1` [NAN-190-3-NB590]: the “NanoBRET Fold Response” value reads like this: (GNRHR, tracer 0.1μM) 1.14; (GNRHR, tracer 1μM) 0.97.

For the molecule `O=C(CCc1ccc2n1[B-](F)(F)[N+]1=C(c3ccc[nH]3)C=CC1=C2)NCc1ccc(C(=O)NCCOCCOCCNCC(O)COc2cccc3ccccc23)cc1` (stereo not shown) [Propranolol-3-NB590], the “NanoBRET Fold Response” value is, setting by setting: (GNRHR, 0.1μM) 1.12; (GNRHR, 1μM) 1.03.

Regarding `COc1ccc2c(n1)c(CCNC(C)=O)cn2CCNC(=O)CCc1ccc2n1[B-](F)(F)[N+]1=C(c3ccc[nH]3)C=CC1=C2` [Azamelatonin-1-NB590], the “NanoBRET Fold Response” value by setting is: (0.1μM tracer) 0.96; (1μM tracer) 1.06.

Regarding `O=C(CCOCCOCCOCCOCCNC(=O)CCc1ccc2n1[B-](F)(F)[N+]1=C(c3ccc[nH]3)C=CC1=C2)NCCCN1CCN(C2=Nc3ccccc3Oc3ccc(Cl)cc32)CC1` [Loxapine-a-2-NB590], the “NanoBRET Fold Response” value reads like this: (GNRHR, tracer 0.1μM) 1.03; (GNRHR, tracer 1μM) 0.89.

For the molecule `COc1ccccc1N1CCN(CCCCN2C(=O)c3ccc(CNC(=O)CCOCCOCCOCCOCCNC(=O)CCc4ccc5n4[B-](F)(F)[N+]4=C(c6ccc[nH]6)C=CC4=C5)cc3C2=O)CC1` [NAN-190-2-NB590], the “NanoBRET Fold Response” value by setting is: (GNRHR, tracer 0.1μM) 0.98; (GNRHR, tracer 1μM) 0.95.

Take `CC(C)N(CC[C@H](c1ccccc1)c1cc(CCNC(=O)c2ccc(CNC(=O)CCc3ccc4n3[B-](F)(F)[N+]3=C(c5ccc[nH]5)C=CC3=C4)cc2)ccc1O)C(C)C` [Tolterodine-BZ-NB590]: the “NanoBRET Fold Response” value runs as follows: (GNRHR, tracer 0.1μM) 1.03; (GNRHR, tracer 1μM) 1.07.

On to `O=C(CCc1ccc2n1[B-](F)(F)[N+]1=C(c3ccc[nH]3)C=CC1=C2)NCCOCCOCCNC(=O)OCCOCCN1CCN(C2=Nc3ccccc3Sc3ccccc32)CC1` [Quetiapine-a-2-NB590], for which the “NanoBRET Fold Response” value (GNRHR, tracer 0.1μM) is reported as 0.97 and the “NanoBRET Fold Response” value (GNRHR, tracer 1μM) is on record as 0.81.

For the molecule `CN1CCN(C2=Nc3cc(Cl)ccc3Nc3ccc(CNC(=O)CCOCCOCCOCCOCCNC(=O)CCc4ccc5n4[B-](F)(F)[N+]4=C(c6ccc[nH]6)C=CC4=C5)cc32)CC1` [Clozapine-b-2-NB590], the “NanoBRET Fold Response” value reads like this: (GNRHR, 0.1μM tracer) 1.06; (GNRHR, 1μM tracer) 1.02.

Consider `CC(C)N(CC[C@H](c1ccccc1)c1cc(CCNC(=O)CCOCCOCCOCCOCCNC(=O)CCc2ccc3n2[B-](F)(F)[N+]2=C(c4ccc[nH]4)C=CC2=C3)ccc1O)C(C)C` [Tolterodine-2-NB590], for which the “NanoBRET Fold Response” value runs as follows: (GNRHR, tracer 0.1μM) 1.23; (GNRHR, tracer 1μM) 1.15.

As to `CN(C)CCC=C1c2ccccc2CCc2ccc(C(=O)NCCNC(=O)CCOCCOCCOCCOCCNC(=O)CCc3ccc4n3[B-](F)(F)[N+]3=C(c5ccc[nH]5)C=CC3=C4)cc21` [Amitriptyline-a-2-NB590], the “NanoBRET Fold Response” value runs as follows: (tracer at 0.1μM) 0.97; (tracer at 1μM) 1.06.

Regarding `Cc1cc2c(s1)Nc1ccccc1N=C2N1CCN(CCCNC(=O)CCOCCOCCOCCOCCNC(=O)CCc2ccc3n2[B-](F)(F)[N+]2=C(c4ccc[nH]4)C=CC2=C3)CC1` [Olanzapine-a-2-NB590], the “NanoBRET Fold Response” value was determined as 1.02 (GNRHR, tracer 0.1μM) and 1.04 (GNRHR, tracer 1μM).

For `N#CN=C(NCCCOc1cccc(CN2CCCCC2)c1)NCCNC(=O)CCOCCOCCOCCOCCNC(=O)CCc1ccc2n1[B-](F)(F)[N+]1=C(c3ccc[nH]3)C=CC1=C2` [Aminopotentidine-2-NB590], the “NanoBRET Fold Response” value is, setting by setting: (GNRHR, tracer 0.1μM) 1.04; (GNRHR, tracer 1μM) 0.98.

As for `Cc1nc2n(c(=O)c1CCN1CCC(c3noc4cc(F)ccc34)CC1)CCCC2OC(=O)NCCOCCOCCOCCOCCNC(=O)CCc1ccc2n1[B-](F)(F)[N+]1=C(c3ccc[nH]3)C=CC1=C2` (stereo not shown) [Risperidone-2-NB590], the “NanoBRET Fold Response” value came to 0.88 (GNRHR, tracer 0.1μM) and 0.97 (GNRHR, tracer 1μM).

`CN(C)CCC=C1c2ccccc2CCc2ccc(C(=O)NCCNC(=O)CCOCCOCCOCCOCCNC(=O)CCc3ccc4n3[B-](F)(F)[N+]3=C(c5ccc[nH]5)C=CC3=C4)cc21` [Amitriptyline-b-2-NB590]: the “NanoBRET Fold Response” value runs as follows: (tracer at 0.1μM, listed as amitriptyline-b-2-NB590) 1.21; (tracer at 1μM, listed as amitriptyline-b-2-NB590) 0.91.
